Source: ChEMBL document CHEMBL3351325, “Synthesis and biological evaluation of hydroxycinnamic acid hydrazide derivatives as inducer of caspase-3” (Eur J Med Chem, 2014)
Activity calls are given as the source filed them. No cut-off for these calls is given here.

Key:
[1] = Antiproliferative activity against human H1299 cells after 24 hrs by MTT assay; format: functional, cell-based; details: NCI-H1299, 24 h
MCF7 = assay: Antiproliferative activity against human MCF7 cells after 24 hrs by MTT assay; format: functional, cell-based; details: MCF7, 24 h
[2] = Antiproliferative activity against human NL20 cells after 24 hrs by MTT assay; format: cell-based; details: NL20, 24 h
[3] = Antiproliferative activity against human H184B5F5/M10 cells after 24 hrs by MTT assay; format: functional, cell-based; details: H184B5F5/M10, 24 h
[4] = Cell cycle arrest in human H1299 cells assessed as accumulation at Sub-G1 phase at 1.5 uM after 24 hrs by flow cytometry (reference value: 5.3%); format: functional, cell-based; details: NCI-H1299
[5] = Cell cycle arrest in human H1299 cells assessed as accumulated at G2/M phase at 1.5 uM by flow cytometry; format: functional, cell-based; details: NCI-H1299, TDE = time-dependent effect
NCI-H1299 [6] = assay: Induction of apoptosis in human H1299 cells assessed as change in morphology at 1.5 uM after 24 hrs using Acridine orange/ethidium bromide staining by fluorescence microscopy; format: functional, cell-based
[7] = Cell cycle arrest in human NL20 cells assessed as accumulation at Sub-G1 phase at 1.5 uM after 12 hrs by flow cytometry (reference value: 4.6 %); format: ADME, cell-based; details: nl20, 12 h
[8] = Cell cycle arrest in human NL20 cells assessed as accumulation at G2/M phase at 1.5 uM after 12 to 24 hrs by flow cytometry; format: ADME, cell-based; details: nl20, 1.5 µM
[9] = Cell cycle arrest in human H1299 cells assessed as reduction in G1 phase at 1.5 uM after 12 to 24 hrs by flow cytometry; format: functional, cell-based; details: NCI-H1299
[10] = Cell cycle arrest in human H1299 cells assessed as accumulation at Sub-G1 phase at 1.5 uM after 12 hrs by flow cytometry (reference value: 5.3%); format: functional, cell-based; details: NCI-H1299
NCI-H1299 [11] = assay: Induction of apoptosis in human H1299 cells assessed as caspase 3 protein expression after 24 hrs by Western blot analysis; format: functional, cell-based
[12] = Cell cycle arrest in human H1299 cells assessed as accumulated at G2/M phase at 1.5 uM after 12 hrs by flow cytometry (reference value: 5.4%); format: functional, cell-based; details: NCI-H1299
[13] = Cell cycle arrest in human H1299 cells assessed as accumulated at G2/M phase at 1.5 uM after 24 hrs by flow cytometry (reference value: 5.4%); format: functional, cell-based; details: NCI-H1299
[14] = Cell cycle arrest in human NL20 cells assessed as accumulation at Sub-G1 phase at 1.5 uM after 24 hrs by flow cytometry (reference value: 4.6 %); format: ADME, cell-based; details: nl20, 24 h

Compound	IC50 (MCF7)	IC50 [1]	IC50 [2]	IC50 [3]	other results
O=C(/C=C/c1ccc(O)cc1)NNC(=O)c1ccc(O)cc1	8.8 µM	5.47 µM	8.62 µM	> 10 µM	
COc1cc(/C=C/C(=O)NNC(=O)c2ccc(O)cc2)cc(OC)c1O	9.32 µM	8.71 µM	> 10 µM	> 10 µM	
O=C(/C=C/c1ccc(O)cc1)NNC(=O)c1ccccc1	7.39 µM	7.36 µM	9.75 µM	9.32 µM	
COc1ccc(C(=O)NNC(=O)/C=C/c2cc(OC)c(O)c(OC)c2)cc1	7.17 µM	7.45 µM	9.42 µM	9.45 µM	
O=C(/C=C/c1ccc(O)c(O)c1)NNC(=O)c1ccc(O)cc1	6.05 µM	4.48 µM	> 10 µM	8.68 µM	
COc1cc(/C=C/C(=O)NNC(=O)c2ccccc2)cc(OC)c1O	> 10 µM	> 10 µM	> 10 µM	> 10 µM	

The remaining molecules from weak to strong by IC50 (MCF7), led by results:

IC50 (MCF7)	Compound	IC50 [1]	IC50 [2]	IC50 [3]	other results
6.02 µM	COc1ccc(C(=O)NNC(=O)/C=C/c2ccc(O)cc2)cc1	6.64 µM	> 10 µM	8.44 µM	
5.62 µM	COc1ccc(C(=O)NNC(=O)/C=C/c2ccc(O)c(OC)c2)cc1	5.42 µM	> 10 µM	> 10 µM	
5.22 µM	COc1cc(/C=C/C(=O)NNC(=O)c2ccccc2)ccc1O	6.16 µM	9.55 µM	9.17 µM	
4.86 µM	COc1ccc(C(=O)NNC(=O)/C=C/c2ccc(O)c(O)c2)cc1	5.42 µM	9.39 µM	9.57 µM	
4.75 µM	O=C(/C=C/c1ccc(O)c(O)c1)NNC(=O)c1ccccc1	6.77 µM	8.85 µM	8.12 µM	
4.36 µM	COc1cc(/C=C/C(=O)NNC(=O)c2ccc(O)cc2)ccc1O	1.5 µM	> 10 µM	> 10 µM	Activity [4]: 12.3%; Activity [5]: tde; Activity (NCI-H1299 [6]): Active; Activity [7]: 5.2%; Activity [8]: Non-toxic; Activity [9]: Active; Activity [10]: 8.9%; Activity (NCI-H1299 [11]): Dose-dependent effect; Activity [12]: 31.7%; Activity [13]: 46.2%; Activity [14]: 4.9%
3.46 µM	CC[C@@]1(O)C(=O)OCc2c1cc1n(c2=O)Cc2cc3c(CN(C)C)c(O)ccc3nc2-1 [TOPOTECAN]	4.18 µM	> 10 µM	> 10 µM	
